Experiments:
Assay type in all cases: in vivo
C57/BL6 male mice [1] = experiment: Contextual fear conditioning in a passive avoidance model
Description: The passive avoidance model is an example of a fear conditioning behavior. To perform this test, animals were trained and tested in a Kinder Scientific avoidance system consisting of a shuttle box with a shock grid floor. On day one, mice were introduced to the system by being allowed to move freely between a darkened side and a lighted side of the shuttle box for 3 minutes after a 1 minute acclimation in the dark. Day two (24 hours later) was similar to the first day except that animals received a 1.0 mA foot shock after crossing to the dark compartment. Vehicle or test compounds are administered subcutaneously 30 minutes prior to this training day. Twenty four hours after the training day, animals were put back in the shuttle box and after a minute acclimation period in the dark, the latency to cross from the lighted to the dark compartment (now with the shock off) was recorded.
Response to the development of contextual fear conditioning in an open field model was evaluated in C57/BL6 male mice using an avoidance shuttle chamber (Kinder Scientific, Poway, Calif.). On Day 1, mice were allowed to run through the shuttle box for 3 minutes in order to acclimate them to it. One side was light and the other was dark. One Day 2, animals were dosed subcutaneously […] prior to training. […] The latency to cross to the dark side was recorded, with a 3 minute maximum testing duration.

C57/BL6 male mice [2] = experiment: Contextual fear conditioning in an open field model; details: 3.0 mg/kg subcutaneously for 10 consecutive days, tested day 16 after 5 day wash out
Description: Response to the development of contextual fear conditioning in an open field model, a model for PTSD, was evaluated in C57/BL6 male mice using the Kinder Scientific MotorMonitor System (Version 3.11, Kinder Scientific, Poway, Calif.). On Day 1 (Trauma Induction Day), animals were pretreated with compound 30 minutes prior to trauma induction and placed in a cage with a shock-grid floor. Locomotor activity was evaluated by an automated open field system with infrared photo-beams. The mice were placed in the center of the cage and the following variables of motor activity were recorded: locomotor activity, fine movement, and rearing. Animals were placed in the chamber for a total of 300 seconds. After 230 seconds, a 10 second, 2.0 mA electric footshock was administered. Mice remained in the chamber for an additional minute. Mice were then injected subcutaneously for 10 consecutive days (starting 24 hours post trauma induction) with either Compound A (3.0 mg/kg) or vehicle. On day 16, following a 5 day wash out period, mice were exposed to the traumatic environment without shock for 5 minutes. Total ambulatory activity was compared between Day 1 and Day 16.

C-57 mice = experiment: Conditioned avoidance response (CAR) model
Text: The Condition Avoidance Responding (CAR, active avoidance) model is a measure of cognitive and attention impairment. It evaluates the disruption of avoidance (increased latency) without disruption of escape (extrapyramidal motor function).
The training of C-57 mice consists of 20 trials with variable inter-trial intervals (trained to 80% Avoidance Criteria). After a one-minute acclimation period, the house light and an acoustic 90 decibel tone (conditioned stimuli) are presented. A response (crossing to dark compartment) within 5 seconds ends the trial and trial is recorded as avoidance response (CAR). […] To avoid shock, animals learn to move from the lighted side of the − chamber to the dark side when the cue is presented (avoidance) or moved when the shock is administered (escape). Compounds that disrupt cognition in the CAR model can be excluded from candidate consideration.
(§1) The present compounds were tested in the conditioned avoidance response (CAR) model and in the Spontaneous Activity model described above.

mice = experiment: Spontaneous Activity model (locomotor activity)
Text: Ambulatory and non-ambulatory activity can be used to test spontaneous and drug-induced motor activity. The test can be used to profile the potential for a drug to induce hyperactivity or sedation.
In this model, Kinder Scientific photobeam activity monitors are used to record the ambulatory and non-ambulatory motor activity. The monitors track the photobeam breaks made by the animal that are used to calculate the number of ambulatory and fine (non-ambulatory) motor movements. A drug-induced increase in activity can indicate the potential for an adverse event such as hyperactivity. A drug-induced decrease in response can indicate the potential for an adverse event such as sedation. Doses at which no significant change in activity are recorded, and more preferably at which no change in activity are recorded, can be selected for further evaluation.
as §1

[3] = subcutaneous, doses of up to 10 mg/kg

O=C1CCCc2c1ccn2CCN1CCN(c2cccc(Cl)c2)CC1 [Compound A, 1-{2-[4-(3-Chlorophenyl)piperazin-1-yl]ethyl}-1,5,6,7-tetrahydroindol-4-one]
latency to cross over to the dark side compared to vehicle (FIG. 3) (C57/BL6 male mice [1]; dosed subcutaneously 20 minutes prior to training, tested 24 hours later): showed a reduction in latency to cross over to the dark side | duration of the improvement in latency (C57/BL6 male mice [1]; testing on Days 3-5 post-shock administration): three consecutive days of testing | suppressed basic movements compared to vehicle treated animals (FIG. 2) (C57/BL6 male mice [2]): displayed a reduction in suppressed basic movements | minimum effective dose, Conditioned Avoidance Response (C-57 mice; models unwanted side effects): >10 mg/kg | effect in the CAR model compared to vehicle treated mice (C-57 mice; [3]): did not produce any effect | minimum effective dose, Locomotor Activity (mice; models unwanted side effects): >10 mg/kg | effect in the Spontaneous Activity model compared to vehicle treated mice (mice; [3]): did not produce any effect
